Measured values taken from US7939589B2, “Polyhydroxy-diamines as low odor, low VOC multi-functional additives for paints and coatings” (Angus Chemical Company, priority 2009, dated 2011).

Tests used:
[1] = Volatile organic content (VOC) of the neat amine, modified EPA Method 24; format: physicochemical; settings: for Volatility by the modified EPA Test Method 24 / VOC: neat amine; for VOC: 1 h at 105-110° C., percent weight loss
Description: Volatile Organic Content (VOC). VOC is measured following EPA Method 24. The amines are weighed in a pan and kept in an oven for 1 h at 105-110° C. The percent weight loss is reported as the VOC, corrected for the water content in the sample which can be measured by Karl Fisher Titration.

[2] = pKa of the neat neutralizer by titration with hydrochloric acid; format: physicochemical; settings: neat amine; for pKa: titration; for pK1: first pKa by titration; for pK2: second pKa by titration
Description: pKa. pKa is measured by titration with a hydrochloric acid titrant solution, using an automated titrator that monitors pH with a combination electrode. The titrator plots pH vs. volume of titrant added, and first determines the titration endpoint(s) of each amine as the volume of titrant added at the inflection point(s) of the curve. The titrator reports the amine pKa value as the pH value at which one-half of the endpoint titrant volume has been delivered, or in the case of multiple endpoints, multiple pKa values are determined using the midpoints between titration endpoints. The inventive amines tested in this example each have two pKa values, due to the two different amine groups in each compound's respective molecular structure.

Compound | Volatility by the modified EPA Test Method 24 [1] [%] | VOC [1] [%] | pKa [2] | VOC contribution [1] | pK1 [2] | pK1 ([2]; listed as TA-AcyHM) | pK2 [2] | pK2 ([2]; listed as TA-AcyHM)
CC(C)(N)CNC(CO)(CO)CO [TA-AMP, 2-(2-Amino-2-methylpropylamino)-2-(hydroxymethyl)propane-1,3-diol] | 3.9 | 3.9 | – | – | – | – | – | –
CCCCN(CCO)CCO [NBDA, N-Butyl-diethanolamine, reference compound] | – | 21 | 9 | – | – | – | – | –
NC1(CNC(CO)(CO)CO)CCCCC1 [TA-ACyHM, 2-((1-aminocyclohexyl)methylamino)-2-(hydroxymethyl)propane-1,3-diol] | 3.8 | 3.8 | – | essentially zero VOC contribution | 9.7 | pK1 9.7 | 4.5 | pK2 4.5
CC(C)(N)CNC(CO)(CO)CO [2-(2-amino-2-methylpropylamino)-2-(hydroxymethyl)propane-1,3-diol] | – | – | – | 3.9% | – | – | – | –
CCC(N)(CO)CO [AEPD, 2-Amino-2-ethyl-1,3-propane-diol, reference compound] | – | 19 | 8.8 | – | – | – | – | –
CC(C)(N)CO [AMP, 2-Amino-2-methyl-1-propanol, reference compound] | – | 100 | 9.7 | 100% | – | – | – | –
